Results: patent US20260048081A1, “COMBINED TREATMENT COMPOSITION FOR TUMOR TREATMENT AND COMBINED TREATMENT METHOD” (ADVACCINE (SUZHOU) BIOPHARMACEUTICALS CO., LTD., priority 2022, published 2026)

Key:
[1] = system: B16-F10 mouse melanoma; experiment: B16-F10 mouse melanoma model, small-volume tumors (Example 9); assay type: in vivo; conditions: 4 mg/kg cisplatin, intraperitoneal injection, days 7, 14, 21
Method: This example further explored the effect of cisplatin combined with CR108 adjuvant on mouse melanoma. A B16-F10 mouse melanoma model was constructed by subcutaneously inoculating tumor cells on the right side of the back of the mice proximal to the hip position at 3×10^5 cells/mouse, […]
Specific mouse administration groups were as follows: (1) a PBS negative control group, (2) CDDP^Lo (2 μg/kg cisplatin), (3) CR108 (50 μg/mouse CpG1018 and 50 μg/mouse water-soluble R848), (4) CDDP^Lo+CR108 (2 μg/kg cisplatin, 50 μg/mouse CpG1018 and 50 μg/mouse water-soluble R848), (5) CDDP^Lo+C′ (2 μg/kg cisplatin and 50 μg/mouse CpG1018), (6) CDDP^Lo+R (2 μg/kg cisplatin and 50 μg/mouse water-soluble R848), and (7) CDDP^Hi (4 mg/kg cisplatin, regular cisplatin chemotherapeutic drug dose). Except for Group (7), which received a high dose of cisplatin by intraperitoneal injection, all other groups were administered by subcutaneous injection near the tumor. […]
On day 4 after the last administration, mice were sacrificed, tumor tissues of the mice were separated and weighed using an analytical balance; the weights were recorded, and the tumors were photographed for recording. […]

[2] = system: 4T1 breast cancer cell; assay type: in vivo; conditions: 2 μg/kg cisplatin (CDDP alone printed 2 g/kg), 50 μg/mouse CpG, 50 μg/mouse R848
[3] = system: B16-F10 mouse melanoma; experiment: Large-volume B16-F10 melanoma model, intratumoral injection: tumor volume and survival (Examples 10-13); assay type: in vivo
Method: To establish a B16-F10 mouse melanoma model, the tumor cells were inoculated at 3×10^5 cells/mouse. Once the tumors reached an appropriate size with an average of about 200 mm^3, suitable mice were selected based on the tumor size and body weight and given drugs according to the following groups. […] Specific groups were as follows: Group G1, normal saline (NS) control group: mice were treated once a week; Group G2: mice received an intratumoral injection of CDDP, followed by an intratumoral injection of CR108 two days later, once a week; Group G3: for each administration cycle, mice first received an intratumoral injection of CDDP, followed by an intratumoral injection of CR108 two days later, which was repeated every other day, with four administrations constituting one cycle, and after a one-week interruption, the next administration cycle was repeated; and Group G4: after CDDP and CR108 were mixed, mice received an intratumoral injection of the mixture, twice a week. After the administration was completed according to the flowchart, the administration was stopped, and the tumor size and physiological states of the mice were monitored during this period. When the tumor volume of each mouse exceeded 2000 mm^3 for the first time or the body weight of the animal was less than 80% of the body weight before the first administration, it was considered an ethical death, and the animal was euthanized. The remaining mice continued to be observed.
Experimental groups were as follows: (1) a normal saline control group, with the same administration protocol as that in Group G1 of Example 10; (2) CDDP^Hi+CR108 (at a cisplatin dose of 0.4 mg/kg), with the same administration protocol as that in Group G2 of Example 10 (qw); (3) CDDP^Lo+CR108 (at a cisplatin dose of 2 μg/kg), with the same administration protocol as that in Group G3 of Example 10 (qod); and (4) CDDP^Hi+CR108 (0.4 mg/kg cisplatin), with the same administration protocol as that in Group G3 of Example 10 (qod); the dose of CR108 used in each group was 50 μg/mouse CpG1018 and 50 μg/mouse water-soluble R848. […]

[4] = system: BALB/c mouse spleen cells; experiment: In vitro stimulation of mouse spleen cells to secrete TNF-α; assay type: cell-based; conditions: FIG. 9; stimulated 18-20 h; research-grade versus pharmaceutical grade reagent
Method: Drug preparation: The preparation and use of the research-grade reagents CpG1826 and R848 (water soluble) were the same as those in Example 1; the pharmaceutical agent R848 (lipid soluble) was dissolved in DMSO to prepare a 10 mg/mL stock solution, 0.1 mL of the stock solution was taken for each administration, the volume was brought to 1 mL, and a 1 mg/mL solution was prepared; CpG1018 was prepared at 1 mg/ml with PBS before each administration.
The spleens of three blank BABL/c mice were added to a 30 mm cell culture dish, 1640 medium was added, and the resulting mixture was ground, filtered through a copper screen, and centrifuged at 1500 rpm for 3 min. The supernatant was discarded, 2 mL of a red blood cell lysis buffer was added, and the samples were left to stand for 2 min, terminated with 4 mL of 1640+10% FBS, and centrifuged at 1500 rpm for 3 min. The supernatant was discarded, the samples were resuspended in 1640+10% FBS, and the cells were counted. The cells were plated in a 96-well cell culture plate at 2×10^6 cells/well, with 200 μL of culture medium per well. […] After the cells were stimulated for 18-20 h, the cell culture supernatant was collected, and the expression of cytokines in each 10^6 mouse spleen cells was determined by using a mouse TNF-α detection kit (purchased from NeoBioscience Technology Co., Ltd., Catalog No. EMC102a.96) according to the instructions.

## [NH2][Pt]([NH2])([Cl])[Cl] [CDDP, cisplatin]
[1]
  mouse death during the administration period: One mouse
[2]; Example 7, FIG. 12, 6 mice per group
  tumor volume growth curve: grew rapidly
[2]; Example 7, FIG. 13, end of the experiment
  tumor weight: too large and overweight
[3]; Example 12, FIG. 31, day 28, CDDP 4 mg/kg once a week, CR108 G3 protocol, CDDP+CR108 0.4 mg/kg cisplatin G3 protocol
  tumor volume compared with the normal saline control group: significantly lower than that in the normal saline control group
[3]; Example 12, 4 mg/kg CDDP once a week
  day on which all mice were euthanized due to tumor volume exceeding 2000 mm^3: 36 days
[3]; Example 12, CDDP 4 mg/kg once a week, CR108 alone G3 protocol, CDDP+CR108 0.4 mg/kg CDDP, not counted on day 45, saline control 26 days
  median survival time: 36 days

## CCOCc1nc2c(N)nc3ccccc3c2n1CC(C)(C)O [R848 (water soluble)]
[4]
  levels of TNF-α cytokines produced from mouse spleen cells stimulated in vitro: comparable
